target: rat acyl CoA cholesterol acyltransferase; assay: Inhibitory action on rat acyl CoA cholesterol acyltransferase (rat liver microsome crude enzyme, [1-14C]oleoyl-CoA); assay type: biochemical; conditions: rat liver microsome fraction, pH 7.4, 37° C., 30 minutes, 30 μM oleoyl-CoA, 30 μM cholesterol; read-out: IC50 (50% inhibition concentration on the enzyme)
Experimental: An inhibitory action of the FO-1289 substance for acyl CoA cholesterol acyltransferase is tested according to the method of Kyoda et al. (J. Antibiotics, 44: 136 1991). A crude enzyme prepared from rat liver microsome fraction is added in the 100 mM phosphate buffer solution (pH 7.4) […] containing 300 μM bovine serum albumin. 30 μM (1-^14 C ) oleoyl-CoA (0.02 μCi) and 30 μM cholesterol (solubilized with 1/30 w/w Triton WR-1339) and incubaatd at 37° C. for 30 minutes. Total lipid is extracted with a mixture of chloroform-methanol (2:1), then each lipid is separated by thin layer chromatography (Kiesel gel GF254, developer:petroleum ether--diethyl ether--acetic acid=90:10:1). Radioactivity incorporated in the cholesterol ester fraction is analysed by RI scanner (Ambis Corp.) to assay an activity of acyl CoA cholesterol acyltransferase.

IC50 [µM]	Structure (SMILES)
0.04	CC(=O)OCC1(C)C(OC(C)=O)CCC2(C)C1CC(OC(C)=O)C1(C)Oc3cc(-c4cccnc4)oc(=O)c3C(O)C21 (stereo not shown) [FO-1289A]
0.03	CCC(=O)OC1CC2C(C)(COC(C)=O)C(OC(C)=O)CCC2(C)C2C(O)c3c(cc(-c4cccnc4)oc3=O)OC12C (stereo not shown) [FO-1289C]
0.15	CCC(=O)OC1CCC2(C)C(CC(OC(C)=O)C3(C)Oc4cc(-c5cccnc5)oc(=O)c4C(O)C23)C1(C)COC(C)=O (stereo not shown) [FO-1289D]
0.1	CCC(=O)OCC1(C)C(OC(C)=O)CCC2(C)C1CC(OC(C)=O)C1(C)Oc3cc(-c4cccnc4)oc(=O)c3C(O)C21 (stereo not shown) [FO-1289B]

From US5807721A, “Compound FO-1289, process of production with aspergillus and strain” (The Kitasato Institute, priority 1992, dated 1998)
